In patent US20070032477A1, “Pteridine derivatives useful for making pharmaceutical compositions” (priority 2003, published 2007):

Key:
[1] = tested on: production of TNF-α by PBMC in response to stimulation by LPS; assay: TNF-α assay; assay type: cell-based, human; conditions: LPS 1 μg/ml, 72 hours, sandwich ELISA
In short: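 Cells were LPS-stimulated (1 μg/ml final) peripheral blood mononuclear cells at 10^6/ml, exposed 72 h at 37 °C to 0.1, 1 or 10 μM test compound.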

[2] = tested on: production of IL-1 β by PBMC in response to stimulation by LPS; assay: IL-1 β assay; assay type: cell-based, human; conditions: LPS 1 μg/ml, 72 hours, sandwich ELISA
Protocol: Peripheral blood mononuclear cells (herein referred as PBMC), in response to stimulation by lipopolysaccharide (LPS), a gram-negative bacterial endotoxin, produce various […], in particular human IL-1 β. Inhibition of the activation of PBMC can therefore be measured by the level of suppression of the production of IL-1 β by PBMC in response to stimulation by LPS.
Such inhibition measurement was performed as follows: PBMC were isolated from heparinized peripheral blood by density gradient centrifugation over Lymphoprep (commercially available from Nycomed, Norway). LPS was then added to the PMBC suspension in complete medium (10^6 cells/ml) at a final concentration of 1 μg/ml. The pteridine derivative to be tested was added at different concentrations (0.1 μM, 1 μM and 10 μM) and the cells were incubated at 37° C. for 72 hours in 5% CO2. The supernatants were collected, then IL-1 β concentrations were measured with an anti-IL-1 β antibody in a sandwich ELISA. The calorimetric reading of the ELISA was measured by a Multiskan RC plate reader (commercially available from ThermoLabsystems, Finland) at 450 nm (reference wavelength: 690 nm). Data analysis was performed with Ascent software 2.6. (also from ThermoLabsystems, Finland): a standard curve (recombinant human IL-1 β) was drawn and the amount (pg/ml) of each sample on the standard curve was determined.
The % suppression of human IL-1 β by the pteridine derivatives (drugs) of this invention was calculated using the formula: [formula]

[3] = tested on: mixed lymphocyte reaction (PBMC with allogeneic PBMC or Eppstein-Barr Virus-transformed human B cells as stimulator cells); assay: Mixed lymphocyte reaction (MLR) assay; assay type: cell-based; conditions: lowest concentration giving 50% suppression of the MLR; [3H]-thymidine

## COc1ccc(-c2cnc3nc(N)nc(N4CCN(C(=O)Nc5ccc(C)cc5)CC4)c3n2)cc1OC [Example 101, 2-amino-4-(N-4-methylphenyl-carbamoyl-piperazin-1-yl)-6-(3,4-dimethoxyphenyl)pteridine]
[1]
  IC50: 430 nM
[2]
  IC50: 5600 nM
[3]
  IC50: 0.8 nM

## COc1ccc(-c2cnc3nc(N)nc(N4CCN(c5ccc(Cl)cc5)CC4)c3n2)cc1OC [Example 162, 2-amino-4-((4-chlorophenyl)-piperazin-1-yl)-6-(3,4-dimethoxyphenyl)pteridine]
[1]
  IC50: 400 nM
[2]
  IC50: 3800 nM
[3]
  IC50: 800 nM

## COc1ccc(-c2cnc3nc(N)nc(N4CCN(CC(=O)N(C)c5ccccc5)CC4)c3n2)cc1OC [Example 132, 2-amino-4-(2-[piperazin-1-yl]-acetic acid N-methyl N-phenyl amide)-6-(3,4-dimethoxyphenyl)pteridine]
[1]
  IC50: 50 nM
[2]
  IC50: 5300 nM
[3]
  IC50: < 100 nM

## CCCCCN1CCN(c2nc(N)nc3ncc(-c4ccc(OC)c(OC)c4)nc23)CC1 [Example 167, 2-amino-6-(3,4-dimethoxyphenyl)-4-(1-pentyl-piperazin-1-yl)pteridine]
[1]
  IC50: 300 nM
[2]
  IC50: 3700 nM
[3]
  IC50: 3800 nM

## COc1ccc(-c2cnc3nc(N)nc(N4CCN(CCn5cccc5)CC4)c3n2)cc1OC [Example 153]
[1]
  IC50: 100 nM
[2]
  IC50: 2000 nM
[3]
  IC50: 200 nM

## COc1ccc(-c2cnc3nc(N)nc(N4CCN(C(=O)NCCc5cccs5)CC4)c3n2)cc1OC [Example 108, 2-amino-4-[N-2-(2-thienyl)ethylcarbamoyl-piperazin-1-yl]-6-(3,4-dimethoxyphenyl)pteridine]
[1]
  IC50: 400 nM
[2]
  IC50: 1000 nM
[3]
  IC50: 34 nM

## CC(=O)N1CCN(c2nc(N)nc3ncc(-c4ccc(F)cc4)nc23)CC1 [Example 57, 2-amino-4-(N-acetylpiperazin-1-yl)-6-(4-fluoro-phenyl)pteridine]
[2]
  IC50: 9500 nM
[3]
  IC50: 1900 nM

## COc1ccc(-c2cnc3nc(N)nc(N4CCN(C(=O)Nc5ccsc5)CC4)c3n2)cc1OC [Example 107, 2-amino-4-(N-3-thienylcarbamoyl-piperazin-1-yl)-6-(3,4-dimethoxyphenyl)pteridines]
[1]
  IC50: 500 nM
[2]
  IC50: 800 nM
[3]
  IC50: 3 nM

## COc1ccc(-c2cnc3nc(N)nc(N4CCN(c5ccc(F)cc5)CC4)c3n2)cc1OC [Example 172, 2-amino-6-(3,4-dimethoxyphenyl)-4-((4-fluorophenyl)-piperazin-1-yl)pteridine]
[1]
  IC50: 50 nM
[2]
  IC50: 5100 nM
[3]
  IC50: 100 nM

## COc1ccc(-c2cnc3nc(N)nc(N4CCN(Cc5cccc(C)c5)CC4)c3n2)cc1OC [Example 136, 2-amino-4-(1-(3-methyl-benzyl)piperazinyl)-6-(3,4-dimethoxyphenyl)pteridine]
[1]
  IC50: 800 nM
[2]
  IC50: 4700 nM
[3]
  IC50: 1400 nM

## COc1ccc(-c2cnc3nc(N)nc(N4CCN(c5nccs5)CC4)c3n2)cc1OC [Example 178]
[1]
  IC50: 150 nM
[2]
  IC50: 4000 nM
[3]
  IC50: 1300 nM

## COc1ccc(-c2cnc3nc(N)nc(N4CCN(C(=O)c5ccc(Cl)cc5)CC4)c3n2)cc1OC [Example 12]
[1]
  IC50: 200 nM
[2]
  IC50: 5000 nM
[3]
  IC50: 300 nM

## COc1ccc(-c2cnc3nc(N)nc(N4CCN(C(=O)c5cccc6ccccc56)CC4)c3n2)cc1OC [Example 46]
[1]
  IC50: 200 nM
[2]
  IC50: 800 nM

## 2-amino-4-(1-butylpiperazino)-6-(3,4-dimethoxyphenyl)pteridine [Example 125]
[2]
  IC50: 7500 nM
[3]
  IC50: 800 nM

## 2-amino-4-((2-pyridyl)-piperazin-1-yl)-6-(3,4-dimethoxyphenyl)pteridine [Example 146]
[1]
  IC50: 200 nM
[2]
  IC50: 5000 nM
[3]
  IC50: 200 nM

## 2-amino-4-(1-isopropylpiperazino)-6-(3,4-dimethoxyphenyl)pteridine [Example 126]
[2]
  IC50: 3700 nM
[3]
  IC50: 4900 nM

## CCCCCOc1ccc(C(=O)N2CCN(c3nc(N)nc4ncc(-c5ccc(OC)c(OC)c5)nc34)CC2)cc1 [Example 21, 2-amino-4-[N-(4-pentoxybenzoyl)-piperazin-1-yl]-6-(3,4-dimethoxy-phenyl)pteridine]
[2]
  IC50: 6700 nM
[3]
  IC50: 6000 nM

## COc1ccc(-c2cnc3nc(N)nc(N4CCN(Cc5ccc(Cl)cc5)CC4)c3n2)cc1OC [Example 139, 2-amino-4-((4-chlorobenzyl)piperazin-1-yl)-6-(3,4-dimethoxyphenyl)pteridine]
[1]
  IC50: 400 nM
[2]
  IC50: 1200 nM

## COc1ccc(-c2cnc3nc(N)nc(N4CCN(C(=O)Oc5ccccc5)CC4)c3n2)cc1OC [Example 50, 2-amino-4-[(N-phenoxycarbonyl)-piperazin-1-yl]-6-(3,4-dimethoxy-phenyl)pteridine]
[1]
  IC50: 20 nM
[2]
  IC50: 5500 nM
[3]
  IC50: 65 nM

## COc1ccc(-c2cnc3nc(N)nc(N4CCN(Cc5ccncc5)CC4)c3n2)cc1OC [Example 157]
[1]
  IC50: 300 nM
[2]
  IC50: 2300 nM
[3]
  IC50: 500 nM

## CC(=O)N1CCN(c2nc(N)nc3ncc(-c4ccc(C)cc4)nc23)CC1 [Example 56, 2-amino-4-(N-acetylpiperazin-1-yl)-6-(4-tolyl)pteridine]
[1]
  IC50: 3700 nM
[2]
  IC50: 8700 nM
[3]
  IC50: 2800 nM

## COc1ccc(-c2cnc3nc(N)nc(N4CCN(C(=O)Oc5ccc(F)cc5)CC4)c3n2)cc1OC [Example 92, 2-amino-4-[(N-4-fluoro-phenoxy-carbonyl)-piperazin-1-yl]-6-(3,4-dimethoxyphenyl)pteridine]
[1]
  IC50: 60 nM
[2]
  IC50: 8600 nM
[3]
  IC50: 50 nM

## COc1ccc(OC(=O)N2CCN(c3nc(N)nc4ncc(-c5ccc(OC)c(OC)c5)nc34)CC2)cc1 [Example 91, 2-amino-4-[(N-4-methoxy-phenoxy-carbonyl)-piperazin-1-yl]-6-(3,4-dimethoxy-phenyl)pteridine]
[1]
  IC50: 60 nM
[2]
  IC50: 4200 nM
[3]
  IC50: 52 nM

## COc1ccc(-c2cnc3nc(N)nc(N4CCN(C(=O)Oc5ccc6ccccc6c5)CC4)c3n2)cc1OC [Example 98]
[1]
  IC50: 80 nM
[2]
  IC50: 6200 nM
[3]
  IC50: 120 nM

## COc1ccc(-c2cnc3nc(N)nc(N4CCN(CC(=O)Nc5nccs5)CC4)c3n2)cc1OC [Example 187, 2-amino-4-[2-(piperazin-1-yl)-acetic acid N-(2-thiazolyl)-amide]-6-(3,4-dimethoxyphenyl)pteridine]
[1]
  IC50: 60 nM
[2]
  IC50: 2400 nM
[3]
  IC50: 100 nM

## 2-amino-4-((3-dichlorophenyl)-piperazin-1-yl)-6-(3,4-dimethoxyphenyl)pteridine [Example 151]
[1]
  IC50: 100 nM
[2]
  IC50: 3700 nM

## COc1ccc(-c2cnc3nc(N)nc(N4CCN(C(=O)CCc5ccccc5)CC4)c3n2)cc1OC [Example 15, 2-amino-4-[(N-hydrocinnamoyl)-piperazin-1-yl]-6-(3,4-dimethoxyphenyl)pteridine]
[1]
  IC50: 10 nM
[2]
  IC50: 7000 nM
[3]
  IC50: 100 nM

## 2-amino-4-(1-cyclopentylpiperazino)-6-(3,4-dimethoxyphenyl)pteridine [Example 124]
[1]
  IC50: 400 nM
[2]
  IC50: 5000 nM

## COc1ccc(-c2cnc3nc(N)nc(N4CCN(C(=O)Oc5ccccc5OC)CC4)c3n2)cc1OC [Example 93]
[1]
  IC50: 50 nM
[2]
  IC50: 4500 nM
[3]
  IC50: 70 nM

## 2-amino-4-((3-methoxyphenyl)-piperazin-1-yl)-6-(3,4-dimethoxyphenyl)pteridine [Example 148]
[1]
  IC50: 300 nM
[2]
  IC50: 7200 nM
[3]
  IC50: 300 nM

## COc1ccc(-c2cnc3nc(N)nc(N4CCN(Cc5ccccc5)CC4)c3n2)cc1OC [Example 65, 2-amino-4-(N-benzylpiperazin-1-yl)-6-(3,4-dimethoxyphenyl)pteridine]
[1]
  IC50: 95 nM
[2]
  IC50: 3500 nM

## COc1ccc(-c2cnc3nc(N)nc(N4CCN(C(=O)Nc5ccc(F)cc5)CC4)c3n2)cc1OC [Example 100]
[1]
  IC50: 510 nM
[2]
  IC50: 7400 nM
[3]
  IC50: 7.4 nM

## COc1ccc(-c2cnc3nc(N)nc(N4CCN(c5cccc(C(F)(F)F)c5)CC4)c3n2)cc1OC [Example 173, 2-amino-6-(3,4-dimethoxyphenyl)-4-((3-trifluoromethylphenyl)-piperazin-1-yl)pteridine]
[2]
  IC50: 4600 nM
[3]
  IC50: 700 nM

## COc1ccc(-c2cnc3nc(N)nc(N4CCN(c5ccc(C(F)(F)F)cc5)CC4)c3n2)cc1OC [Example 180, 2-amino-6-(3,4-dimethoxyphenyl)-4-((4-trifluoromethylphenyl)-piperazin-1-yl)pteridine]
[1]
  IC50: 1400 nM
[2]
  IC50: 4400 nM

## 2-amino-4-(3-(piperazin-1-yl)-propionic acid ethyl ester)-6-(3,4-dimethoxyphenyl)pteridine [Example 134]
[1]
  IC50: 70 nM
[2]
  IC50: 1200 nM
